Source: patent publication US11633481B2, “Surfactants for use in healthcare products” (priority 2019, dated 2023)

Columns and labels:
Format in all cases: physicochemical
[1] = Dynamic surface tension with bubble pressure tensiometer; settings: 23° C.
Source text: Another parameter used to assess the performance of surfactants is dynamic surface tension. The dynamic surface tension is the value of the surface tension for a particular surface or interface age. In the case of liquids with added surfactants, this can differ from the equilibrium value. Immediately after a surface is produced, the surface tension is equal to that of the pure liquid. As described above, surfactants reduce surface tension; therefore, the surface tension drops until an equilibrium value is reached. The time required for equilibrium to be reached depends on the diffusion rate and the adsorption rate of the surfactant.
One method by which dynamic surface tension is measured relies upon a bubble pressure tensiometer. This device measures the maximum internal pressure of a gas bubble that is formed in a liquid by means of a capillary. The measured value corresponds to the surface tension at a certain surface age, the time from the start of the bubble formation to the occurrence of the pressure maximum. The dependence of surface tension on surface age can be measured by varying the speed at which bubbles are produced.
(§1) Nuclear magnetic resonance (NMR) spectroscopy was performed on a Bruker 500 MHz spectrometer. The critical micelle concentration (CMC) was determined by the Wilhelmy plate method at 23° C. with a tensiometer (DCAT 11, DataPhysics Instruments GmbH) equipped with a Pt—Ir plate. Dynamic surface tension was determined with a bubble pressure tensiometer (Krüss BP100, Krüss GmbH), at 23° C. Contact angle was determined with the optical contact angle goniometer (OCA 15 Pro, DataPhysics GmbH) equipped with a digital camera.

[2] = Critical micelle concentration and minimum surface tension by Wilhelmy plate method
Source text: These properties may be measured and described by various methods. One method by which surfactants may be described is by the molecule's critical micelle concentration (CMC). CMC may be defined as the concentration of a surfactant at which micelles form, and above which all additional surfactant is incorporated into micelles.
As surfactant concentration increases, surface tension decreases. Once the surface is completely overlaid with surfactant molecules, micelles begin to form. This point represents the CMC, as well as the minimum surface tension. Further addition of surfactant will not further affect the surface tension. CMC may therefore be measured by observing the change in surface tension as a function of surfactant concentration. One such method for measuring this value is the Wilhemy plate method. A Wilhelmy plate is usually a thin iridium-platinum plate attached to a balance by a wire and placed perpendicularly to the air-liquid interface. The balance is used to measure the force exerted on the plate by wetting. This value is then used to calculate the surface tension (γ) according to Equation 1: γ=F/I cos θ Equation 1: wherein I is equal to the wetted perimeter (2w+2d, in which w and d are the […], respectively) and cos θ, the contact angle between the liquid and the plate, is assumed to be 0 in the absence of an extant literature value.
as §1

[3] = Contact angle (wetting) with optical contact angle goniometer; settings: 10× CMC in water
Source text: Surface-active compounds may also be assessed by their wetting ability on solid substrates as measured by the contact angle. When a liquid droplet comes in contact with a solid surface in a third medium, such as air, a three-phase line forms among the liquid, the gas and the solid. The angle between the surface tension unit vector, acting at the three-phase line and tangent at the liquid droplet, and the surface is described as the contact angle. The contact angle (also known as wetting angle) is a measure of the wettability of a solid by a liquid. In the case of complete wetting, the liquid is completely spread over the solid and the contact angle is 0°. Wetting properties are typically measured for a given compound at the concentration of 1-100×CMC, however, it is not a property that is concentration-dependent therefore measurements of wetting properties can be measured at concentrations that are higher or lower.
In one method, an optical contact angle goniometer may be used to measure the contact angle. This device uses a digital camera and software to extract the contact angle by analyze the contour shape of a sessile droplet of liquid on a surface.
as §1

Solubility in water = settings: pure water, without hydrotropes or other surfactants
[4] = substrate Polyethylene terephthalate
[5] = chloride counterion, pH=7, 23° C.

Row | Compound | time to fully saturate a freshly created air-water interface (dynamic surface tension) [1] | critical micelle concentration (CMC) ([2]; in water, 23° C.) | plateau value of minimum surface tension ([2]; in water, 23° C.) | contact angle (CA) ([3]; substrate Nylon) | contact angle (CA) [3, 4] | contact angle (CA) ([3]; substrate Polyethylene) | contact angle (CA) ([3]; substrate Polypropylene) | contact angle (CA) ([3]; substrate Teflon) | solubility in water (Solubility in water) | contact angle (CA) ([3]; substrate Polyethylene-HD) | critical micelle concentration (CMC) [2, 5] | plateau value of minimum surface tension [2, 5] | time to fully saturate the interface (dynamic surface tension) ([1]; freshly created air-water interface)
1 | C[N+](C)([O-])CCCCCC(=O)NCCC[Si](O[Si](C)(C)C)(O[Si](C)(C)C)O[Si](C)(C)C [Surfactant 4, 6-((3-(1,1,1,5,5,5-hexamethyl-3-((trimethylsilyl)oxy)trisiloxan-3-yl)propyl)amino)-N,N-dimethyl-6-oxohexan-1-amine oxide] | one second or less | about 0.49 mmol | about 20 mN/m | 0 ° | 0 ° | 0 ° | 0 ° | 10.6 ° |  |  |  |  | 
2 | CN(C)CCCCCC(=O)NCCC[Si](O[Si](C)(C)C)(O[Si](C)(C)C)O[Si](C)(C)C [Surfactant 1, 6-(dimethylamino)-N-(3-(1,1,1,5,5,5-hexamethyl-3-((trimethylsilyl)oxy)trisiloxan-3-yl)propyl)hexanamide] |  |  |  |  |  |  |  |  | slightly soluble |  |  |  | 
3 | C[N+](C)(CCCCCC(=O)NCCC[Si](O[Si](C)(C)C)(O[Si](C)(C)C)O[Si](C)(C)C)CCCCS(=O)(=O)[O-] [Surfactant 5, 4-((6-((3-(1,1,1,5,5,5-hexamethyl-3-((trimethylsilyl)oxy)trisiloxan-3-yl)propyl)amino)-6-oxohexyl)dimethylammonio)butane-1-sulfonate] | one second or less | about 0.39 mmol | about 21 mN/m | 0 ° | 0 ° | 0 ° | 0 ° | 10.2 ° |  | 0 ° |  |  | 
4 | CN(C)CCCCCC(=O)NCCC[Si](O[Si](C)(C)C)(O[Si](C)(C)C)O[Si](C)(C)C [Surfactant 2, 6-((3-(1,1,1,5,5,5-hexamethyl-3-((trimethylsilyl)oxy)trisiloxan-3-yl)propyl)amino)-N,N-dimethyl-6-oxohexan-1-aminium chloride] |  |  |  |  |  |  |  |  |  |  | about 2 mmol | about 23 mN/m | 
5 | C[N+](C)(C)CCCCCC(=O)NCCC[Si](O[Si](C)(C)C)(O[Si](C)(C)C)O[Si](C)(C)C [Surfactant 3, 6-((3-(1,1,1,5,5,5-hexamethyl-3-((trimethylsilyl)oxy)trisiloxan-3-yl)propyl)amino)-N,N,N-trimethyl-6-oxohexan-1-aminium iodide] |  | about 1.6 mmol | around 20 mN/m | 0 ° | 0 ° | 0 ° | 0 ° | 10.5 ° |  |  |  |  | less than 500 ms
